Results taken from US6410790B1, “3-amin3-arylpropan-1-ol compounds, their preparation and use” (priority 1999, dated 2002).

Experiments:
[1] = tested on: phenylquinone-induced writhing reaction; assay: phenylquinone-induced writhing test in mice; assay type: in vivo; settings: male NMRI mice, phenylquinone i.p. 10 minutes later; for inhibition in vivo at 10 mg/kg: Mus musculus, iv, 10 min, 10 mg/kg intravenously
How it was run: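 Male NMRI mice (25–30 g, n=10/group) received test substance i.v. at 10 mg/kg, then 0.02% phenylquinone i.p. 10 min later. Writhing reactions were counted 5–20 min after phenylquinone; % inhibition is relative to saline-treated controls.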

NA transporter = target: T1, NA transporter (Rattus norvegicus, UniProt Q63380); assay: synaptosomal noradrenaline uptake inhibition (NA uptake inhibition); assay type: biochemical; settings: for NA Uptake Inhibition at 1 μM: 1 μM in the assay, synaptosomes from rat hypothalamus; for inhibition at 1 µM: read-out: NA Uptake Inhibition at 1 μM, 1 μM in the assay, synaptosomes from rat hypothalamus
T1 construct: synaptosomes are isolated fresh from rat brains; from tissue; host or cells: rat hypothalamus synaptosomes (P2 fraction)
T1 sequence (Q63380 1-617): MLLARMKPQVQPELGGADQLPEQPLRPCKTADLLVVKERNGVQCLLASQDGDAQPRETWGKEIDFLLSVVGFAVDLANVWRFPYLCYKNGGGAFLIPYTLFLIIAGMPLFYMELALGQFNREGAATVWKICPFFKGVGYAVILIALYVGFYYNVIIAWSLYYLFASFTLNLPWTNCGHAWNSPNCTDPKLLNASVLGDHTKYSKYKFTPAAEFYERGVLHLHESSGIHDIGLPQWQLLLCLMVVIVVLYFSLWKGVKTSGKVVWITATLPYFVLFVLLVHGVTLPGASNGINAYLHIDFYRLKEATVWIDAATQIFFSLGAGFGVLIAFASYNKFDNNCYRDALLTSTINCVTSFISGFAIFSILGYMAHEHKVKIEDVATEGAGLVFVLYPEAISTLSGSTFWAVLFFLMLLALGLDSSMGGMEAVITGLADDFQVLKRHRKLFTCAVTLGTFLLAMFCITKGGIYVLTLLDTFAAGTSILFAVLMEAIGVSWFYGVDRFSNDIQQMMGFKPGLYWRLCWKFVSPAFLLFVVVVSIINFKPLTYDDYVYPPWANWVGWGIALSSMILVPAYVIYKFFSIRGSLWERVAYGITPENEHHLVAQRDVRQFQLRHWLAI
How it was run: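 IC50 values converted to Ki via Cheng-Prusoff; Km by Lineweaver-Burk. N=4 independent series, each in triplicate, mean ± SEM.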

[2] = tested on: phenylalkylamine binding site of the L-type calcium channel; assay: Verapamil binding, L calcium channel; settings: for Verapamil Binding at 10 μM: percentage inhibition, N-methyl-[3H]-verapamil 2 nM
Method: Binding Investigations in the L Calcium Channel
Phenylalkylamine Binding Site (Verapamil Binding)
The biological material (ion channel particles) was prepared on the basis of the publication of Reynolds, Gould and Snyder (I. J. Reynolds, R. J. Gould and S. H. Snyder (1983) […]. 95, 319-321).
N-methyl-[^3H]-verapamil (2 nM in the assay) was used as radioligand. The radioactivity that is measured in the presence of non-radioactive verapamil (10^−4 M in the assay) is defined as non-specific binding. The material was incubated at 25° C. for 45 minutes. The material was then filtered using a Whatman GF/B filter, followed by washing. The radioactivity remaining on the filter (ion channel binding) was measured using a β-counter.
For this purpose IC50 values are obtained, which can be converted to inhibitor constants (Ki) according to the “Cheng-Prusoff equation” (Y. C. Clieng and W. H. Prusoff (1973) Biochem. Pharmacol. 22, 3099-3108). The IC50 values were obtained by means of the computer program “Figure P” (version 6.0, Biosoft, Cambridge, England). Km values were calculated according to Lineweaver and Burk (H. Lineweaver and D. Burk (1934) J. Am. Chem. Soc. 56, 658-666). The “Ligand” computer program (version 4, Biosoft, England) was used to obtain Ken values.

[3] = tested on: benzothiazepine binding site of the L-type calcium channel; assay: Diltiazem binding, L calcium channel; set-up: species or system rat; settings: 10 μM, percentage inhibition, [3H]-cis-(+)-diltiazem 5 nM, rat cerebral cortex membranes
How it was run: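 Rat cerebral cortex membranes incubated with [^3H]-cis-(+)-diltiazem (5 nM) for 20 min at 25° C; nonspecific binding defined with (±)-diltiazem (10^−6 M). Bound ligand collected by GF/B filtration and counted; IC50 values converted to Ki by Cheng-Prusoff.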

[4] = tested on: binding site 2 of the sodium channel; assay: BTX binding, sodium channel; settings: 10 μM, percentage inhibition, [3H]-batrachotoxin A20 α-benzoate 10 nM, rat cerebral cortex synaptosomes
How it was run: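 Rat cerebral cortex synaptosomes incubated with 10 nM [^3H]-batrachotoxin A20 α-benzoate at 37° C for 120 min; non-specific binding defined with 0.3 mM veratridine. IC50 values converted to Ki via Cheng-Prusoff; means±SEM of 3 independent series run in triplicate.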

Structure (SMILES)	inhibition in vivo at 10 mg/kg [1] [%]	Diltiazem Binding at 10 μM [3] [%]	Verapamil Binding at 10 μM [2] [%]	BTX Binding at 10 μM [4] [%]	inhibition at 1 µM (NA transporter) [%]	further results
CN(C)C(c1ccccc1)C1CCCCC1(O)c1ccc(Cl)c(Cl)c1.Cl (single isomer, unassigned; (+)) [+19, (+)-1-(3,4-dichlorophenyl)-2-(dimethylaminophenylmethyl)cyclohexanol, hydrochloride]	74	85	–	–	–	NA Uptake Inhibition at 1 μM (NA transporter; hydrochloride): 62%; Verapamil Binding at 10 μM ([2]; hydrochloride): 82%; BTX Binding at 10 μM ([4]; hydrochloride): 92%
CN(C)C(c1ccccc1)C1CCCCC1(O)c1ccc(Cl)c(Cl)c1.Cl (single isomer, unassigned; (-)) [−19, (−)-1(3,4-dichlorophenyl)-2-(dimethylaminophenylmethyl)cyclohexanol, hydrochloride]	–	85	–	–	–	% Inhibition of the writhing reaction at 10 mg/kg intravenously ([1]; hydrochloride, 10 mg/kg): 88%; NA Uptake Inhibition at 1 μM (NA transporter; hydrochloride): 36%; Verapamil Binding at 10 μM ([2]; hydrochloride): 83%; BTX Binding at 10 μM ([4]; hydrochloride): 96%
COc1cccc(C2(O)CCCCC2C(c2ccccc2)N(C)C)c1.Cl (stereo not shown) [Example 1, 2-(dimethlylaminophenylmethyl)-1-(3-methoxyphenyl)cyclohexanol, hydrochloride]	–	65	76	77	–	% Inhibition of the writhing reaction at 10 mg/kg intravenously [1]: 85%; NA Uptake Inhibition at 1 μM (NA transporter): 41%
CN(C)C(c1ccccc1)C1CCCCC1(O)c1cccc(F)c1.Cl (stereo not shown) [Example 2, 2-(dimethylaminophenylmethyl)-1-(3-fluorophenyl)cyclohexaniol, hydrochloride]	–	52	76	80	–	% Inhibition of the writhing reaction at 10 mg/kg intravenously [1]: 88%; NA Uptake Inhibition at 1 μM (NA transporter): 52%
CN(C)C(c1ccccc1)C1CCCCC1(O)c1ccccc1.Cl (stereo not shown) [Example 3, 2-(dimethylaminophenylmethyl)-1-phenylcyclohexanol, hydrochloride]	83	50	68	78	41	–
CN(C)C(c1ccccc1)C1CCCCC1(O)c1cccc(O)c1.Cl (stereo not shown) [Example 4]	–	46	57	70	–	% Inhibition of the writhing reaction at 10 mg/kg intravenously [1]: 75%; NA Uptake Inhibition at 1 μM (NA transporter): 49%
COc1ccc(C2(O)CCCCC2C(c2ccccc2)N(C)C)cc1.Cl (stereo not shown) [Example 5, 2-(dimethylaminophenylmethyl)-1-(4-methoxyphenyl)cyclohexanol, hydrochloride]	100	54	56	97	70	–
CN(C)C(c1ccccc1)C1CCCCC1(O)c1ccc(Cl)cc1.Cl (stereo not shown) [Example 6, 1-(4-chlorophenyl)-2-(dimethylaminophenylmethyl)cyclohexanol, hydrochloride]	83	96	60	90	51	–
CN(C)C(c1ccccc1)C1CCCCC1(O)c1ccc(F)cc1.Cl (stereo not shown) [Example 7, 2-(dimethylaminophenylmethyl)-1-(4-fluorophenyl)cyclohexanol, hydrochloride]	85	78	56	86	38	–
CN(C)c1ccc(C2(O)CCCCC2C(c2ccccc2)N(C)C)cc1.Cl (stereo not shown) [Example 10, 1-(4-dimethylaminophenyl)-2-[dimethylaminophenylmethyl]cyclohexanol, hydrochloride]	97	69	61	88	48	–
CN(C)C(c1ccccc1)C1CCCCC1(O)c1cccc2c1OCO2.Cl (stereo not shown) [Example 11, 1-benzo[1,3]dioxol-4-yl-2-(dimethylaminophenylmethyl)cyclohexanol, hydrochloride]	99	85	61	79	54	–
CN(C)C(c1ccccc1)C1CCCCC1(O)Cc1ccccc1.Cl (stereo not shown) [Example 14, 1-benzyl-2-(dimethylaminophenylmethyl)cyclohexanol, hydrochloride]	70	88	–	89	100	melting point: 223 to 225 °C
CN(C)C(c1ccccc1)C1CCCCC1(O)Cc1ccc(OC(F)(F)F)cc1.Cl (stereo not shown) [Example 16, 2-(dimethylaminophenylmethyl)-1-(4-trifluoromethoxybenzyl)cyclohexanol, hydrochloride]	75	100	91	98	89	–
CN(C)C(c1ccccc1)C1CCCCC1(O)c1ccoc1.Cl (stereo not shown) [Example 17, 2-(dimethylaminophenylmethyl)-1-furan-3-ylcyclohexanol, hydrochloride]	100	54	72	70	57	–
CCCCC1(O)CCCCC1C(c1ccccc1)N(C)C.Cl (stereo not shown) [Example 18, 1-butyl-2-(dimethylaminophenylmethyl)cyclohexanol, hydrochloride]	100	81	75	95	84	–
CN(C)C(c1ccccc1)C1CCCCC1(O)c1ccc(Cl)c(Cl)c1 (stereo not shown) [Example 19, 1-(3,4-dichlorophenyl)-2-(dimethylaminophenylmethyl)-cyclohexanol]	–	–	81	97	–	NA Uptake Inhibition at 1 μM (NA transporter): 50%
CN(C)C(c1ccccc1)C1CCCCC1(O)c1ccc2ccccc2c1.Cl (stereo not shown) [Example 21, 2-(dimethylaminophenylmethyl)-1-naphthalene-2-ylcyclohexanol, hydrochloride]	97	85	71	94	17	–
COc1cccc(CC2(O)CCCCC2C(c2ccc(C(F)(F)F)cc2)N(C)C)c1.Cl (stereo not shown) [Example 22, 2-[dimethylamino-(4-trifluoromethylphenyl)methyl]-1-(3-methoxybenzyl)cyclohexanol, hydrochloride]	68	72	80	98	91	–
Cc1ccccc1C(C1CCCCC1(O)c1ccccc1)N(C)C.Cl (stereo not shown) [Example 81, 2-(dimethylamino-o-tolylmethyl)-1-phenylcyclohexanol, hydrochloride]	–	–	–	–	–	% Inhibition of the writhing reaction at 10 mg/kg intravenously ([1]; hydrochloride, 10 mg/kg): 75%; NA Uptake Inhibition at 1 μM (NA transporter; hydrochloride): 66%; Diltiazem Binding at 10 μM ([3]; hydrochloride): 83%; BTX Binding at 10 μM ([4]; hydrochloride): 99%
CN(C)C(c1cccs1)C1CCCCC1(O)Cc1ccc(C(C)(C)C)cc1.Cl (stereo not shown) [Example 82, 1-(4-tert.-butylbenzyl)-2-[dimethylaminothiophen-2-ylmethyl]cyclohexanol, hydrochloride]	100	85	–	98	0	–
COc1ccc(CCN(C)CCCC(C#N)(c2ccc(OC)c(OC)c2)C(C)C)cc1OC (stereo not shown) [N-methyl-[^3H]-verapamil, reference compound]	–	–	–	–	–	Kd ([2]; radioligand, N=2, read-out: KD value for this binding site): 139 nM
